# Results as given in patent US20250289850A1, “NOVEL ANTIMICROBIAL PEPTIDES AND METHODS OF USE THEREOF” (QATAR UNIVERSITY, priority 2024, published 2025).
# Where two headings read alike, the source gives them in different places. Where a SMILES comes first, the peptide text is derived from it.
# Experiments:
# [1] = tested on: human fibroblast cells; experiment: Genotoxicity, oxiselect comet assay; format: cell-based
# Description: The genotoxicity effect of the selected AMP was also investigated. In this part, human fibroblast cells were cultured in 24-well plates at a seeding density of 100,000 cells/well; cells were then allowed to adhere and proliferate overnight (16-18 hours). The following day, cells were treated with the AMP (1000 and 2000 μg/ml; negative and positive controls were included in this part, and cells were treated with DMEM and H2O2, respectively. After which, cells were incubated at humidified conditions for 24 hours. Following that, the genotoxicity effect of the AMP was measured using oxiselect comet assay (Abcam, UK) and following the manufacturer's instructions. Images were taken using OLYMPUS BX62, at magnification 40×, attached to an OLYMPUS DP73 digital camera. Image analysis was done using the ImageJ application (OpenComet plugin).
# [2] = tested on: MRSA biofilm; format: cell-based, Methicillin-Resistant Staphylococcus Aureus
# Description: The first step in creating the biofilm was the selection of borosilicate glass beads 3-4 mm in diameter (ISOLAB Laborgeräte GmbH, Singapore). Then, the selected beads were soaked and cleaned with a soap solution; after that, they were washed with ddH2O, soaked in 80% ethanol for 24 hrs, and then washed properly using sterile water. Bacteria were then grown on these beads to create the biofilm by taking 20 μL of 0.5 McFarland from the bacterial strains (either MRSA or E. Coli), adding it to 200 μL of nutrient broth in 96-well flat-bottom plates, and placing one bead in cach well. 96-well plates were then sealed tightly with a parafilm and placed in an acrobic shaker (Innova 44 Incubator Shaker) for 72 hours at 37° C. at a speed of 100 rpm. Every 24 hours, 200 μL of fresh media was added to replace the consumed media. The beads were then placed in an Eppendorf tube containing 200 μL of nutrient broth and vortexed for 1 min to loosen any attached bacteria. This step was repeated after 24, 48, and 72 hours to observe the density of the biofilm formed on the beads. Then, 100 μL of the solution was serially diluted over ten-fold serial dilutions, and 20 μL of the serial dilution was spread onto fresh nutrient agar media and incubated at 37° C. for 18 hours. Biofilm colonies were then counted. Generated biofilms were used to investigate the selected AMP's ability to inhibit the MRSA and E. coli biofilms.
# (§1) The antibiofilm activity of AMP on 72 hours biofilm cultures was tested by treating the biofilm beads with 2000, 1000, 500, 250, 125, and 62.5 μg/mL concentrations of the selected AMP in 96-well plates. Plates were then tightly sealed with a parafilm and placed in an acrobic shaker (Innova 44 Incubator Shaker) for 72 hours at 37° C. at a speed of 100 rpm. The antibiofilm activity of the AMP was determined after observing the wells that contained a transparent solution with the naked eye. Subsequently, the antibiofilm activity of the selected AMP was determined using SEM, as described below. […]
# [3] = tested on: Human Fibroblasts (ATCC PCS201010); format: cell-based
# Description: The cytotoxicity and genotoxicity in vitro effect of the AMP was investigated. Human Fibroblasts (ATCC PCS201010, ThermoFischer Scientific, USA) and cells were seeded at a seeding density of 10,000 Cells/well in 96-well plates using Dulbecco's Modified Eagle Medium (DMEM, Gibco, USA). Media was supplemented with 10% Fetal bovine serum (FBS, Gibco, USA), and penicillin streptomycin (Gibco, USA). Cells were incubated overnight (16-18 hrs) at humidified conditions (5% CO2, 37° C.). Adherent cells were then treated with different concentrations of the AMP (7.8125, 15.625, 62.5, 125, 250, 500, 1000, 2000 μg/ml), and cells were then incubated at humidified conditions for 24 hrs. Then conditioned media was collected at different time points 0, 0.5, 1, 3, 6, 24 hours) and used for measuring Lactate Dehydrogenase (LDH, Thermofischer, USA) following manufacturers' instructions. Adherent cells were used to measure cell viability using AlamarBlue (Invitrogen, USA) following manufacturers' instructions at the following time points 0, 0.5, 1, 3, 6, and 24 hours.
# [4] = tested on: E. coli (ATCC-29522); format: cell-based, Escherichia coli
# Description: (§2) MRSA and E. coli strains were acquired from the microbiology bacterial culture stock at the Biomedical Research Centre (BRC), Qatar University. MRSA (ATCC-33591) and E. coli (ATCC-29522) strains were cultivated overnight on nutrient agar (Remel, ThermoFisher Scientific, Lenexa, KS, USA), followed by a 24 hour period of incubation at 37° C. and adjustment to 0.5 MacFarland Standard, which was measured using DensiCHEK PLUS (bioMérieux, France).
# (§3) Minimal Inhibitory Concentration (MIC) of AMP MRSA and E. coli was determined as follows. […] serial dilutions of AMP starting from 2000 μg/ml of 160 μL Mueller Hinton broth (MHB, Lioflchem, Roseto degli Abruzzi, Italy) were transferred to the wells (100 μl each) in a 96-well flat-bottom plate (Microtesttm 96 tissue culture plate, Franklin Lakes, NJ, USA) to get concentrations of 2000, 1000, 500, 250, 125, 62.5, 31.25, 15.6, and 7.8 μg/mL. Then, 10 μL of 0.5 MacFarland for each type (MSRA and/or E. coli) of the measured strain was added to each well. To assure sterilization, the 96-well plate contained wells with MHB control, MHB with AMP treatment control, and controls for the bacterial strain mixed with MHB to guarantee bacterial growth. 96-well plates were then sealed tightly with a parafilm and placed in an aerobic shaker (Innova 44 Incubator Shaker) for 24 hours at 37° C. at a speed of 100 rpm. After this, the MIC of the treatment that effectively eliminated bacterial growth was determined with the naked eye following previously established procedure as described in Eltai N O et al., Antibacterial and Antibiofilm Activity of Mercaptophenol Functionalized-Gold Nanorods Against a Clinical Isolate of Methicillin-Resistant Staphylococcus aureus. […]
# (§4) To determine the minimum biocidal concentration ([…]) for the AMP, 20 μL of a ten-fold serial dilution of the MIC with AMP was spread onto fresh nutrient agar media and incubated at 37° C. for around 18 hrs. Bacterial colonies were counted and compared to those grown on control nutrient agar, which had 20 μL of a solution composed only of bacteria and MHB.
# [5] = tested on: MRSA (ATCC-33591); format: cell-based, Methicillin-Resistant Staphylococcus Aureus
# Description: as §2, §3, §4
# [6] = tested on: E. coli biofilm; format: cell-based, Escherichia coli
# Description: The first step in creating the biofilm was the selection of borosilicate glass beads 3-4 mm in diameter (ISOLAB Laborgeräte GmbH, Singapore). Then, the selected beads were soaked and cleaned with a soap solution; after that, they were washed with ddH2O, soaked in 80% ethanol for 24 hrs, and then washed properly using sterile water. Bacteria were then grown on these beads to create the biofilm by taking 20 μL of 0.5 McFarland from the bacterial strains (either MRSA or E. Coli), adding it to 200 μL of nutrient broth in 96-well flat-bottom plates, and placing one bead in cach well. 96-well plates were then sealed tightly with a parafilm and placed in an acrobic shaker (Innova 44 Incubator Shaker) for 72 hours at 37° C. at a speed of 100 rpm. Every 24 hours, 200 μL of fresh media was added to replace the consumed media. […] Biofilm colonies were then counted. […]
# as §1, with “Plates were then tightly sealed with a parafilm and placed in an acrobic shaker (Innova 44 Incubator Shaker) for 72 hours at 37° C. at a speed of 100 rpm.” left out
SMILES,"comet tail / DNA migration ([1]; human fibroblasts, AMP 2000, 500 μg/ml (figure legend), positive control H2O2)","antibiofilm effect ([2]; MRSA biofilm, 2000, 1000 μg/ml AMP)","antibiofilm effect ([2]; MRSA biofilm, highest dose 2000 μg/ml AMP)","MIC/MBC in biofilm ([2]; biofilm, 72 h)",cellular cytotoxicity (LDH) [3],genotoxicity (tail moment) [1],"MBC ([4]; ATCC-29522, 24 h)","antibacterial effect ([4]; E. coli, 2000, 1000 μg/ml AMP, 24 hours)","minimum inhibitory (MIC) ([4]; E. coli, 24 hours, 37° C., read with the naked eye)","MBC ([5]; ATCC-33591, 24 h)","antibacterial effect ([5]; MRSA, 2000, 1000 μg/ml AMP, 24 hours)","minimum inhibitory (MIC) ([5]; MRSA, 24 hours, 37° C., read with the naked eye)","antibiofilm effect ([6]; E. coli biofilm, only the highest concentration 2000 μg/ml AMP)","MIC/MBC in biofilm ([6]; biofilm, 72 h)"
"OO [H2O2, reference compound]",extensive DNA migration,–,–,–,–,–,–,–,–,–,–,–,–,–
CC(C)C[C@H](NC(=O)[C@H](CCCNC(=N)N)NC(=O)[C@H](CCCNC(=N)N)NC(=O)[C@H](CCCNC(=N)N)NC(=O)[C@H](Cc1ccccc1)NC(=O)CNC(=O)[C@H](CCCNC(=N)N)NC(=O)[C@H](CS)NC(=O)[C@H](CCCNC(=N)N)NC(=O)CNC(=O)CNC(=O)[C@H](CS)NC(=O)[C@H](Cc1ccccc1)NC(=O)[C@H](C)N)C(=O)N[C@@H](Cc1ccccc1)C(=O)N[C@@H](CS)C(=O)N[C@H](C(=O)N[C@@H](CCCCN)C(=O)N[C@@H](C)C(=O)N[C@@H](CS)C(=O)O)[C@@H](C)O [AMP] (H-AFCGGRCRGFRRRLFCTKAC-OH; N-terminus and C-terminus assumed),–,eliminate the MRSA biofilm,totally inhibiting the MRSA biofilm growth,1000 µg/mL,no cellular cytotoxicity was detected,no significant effect,1000 µg/mL,biocidal effect,500 µg/mL,1000 µg/mL,biocidal effect,500 µg/mL,inhibit the E. coli biofilm,2000 µg/mL
